A word on the inhibition: it is the drop in the measured response relative to a control, in per cent.

Read-outs that look alike come from different tables or passages of the source.

The target in the assay is PIKFYVE (Homo sapiens, UniProt Q9Y2I7). In words: KINOMEscan Kinase Assay (PIKFYVE inhibitory activity).
Where [1] appears, read: read-out: PIKfyve Activity (PIKfyve % inhibition).
[2] abbreviates: read-out: PIKfyve Activity (% inhibition).

PIKFYVE, sequence (Q9Y2I7 whole entry): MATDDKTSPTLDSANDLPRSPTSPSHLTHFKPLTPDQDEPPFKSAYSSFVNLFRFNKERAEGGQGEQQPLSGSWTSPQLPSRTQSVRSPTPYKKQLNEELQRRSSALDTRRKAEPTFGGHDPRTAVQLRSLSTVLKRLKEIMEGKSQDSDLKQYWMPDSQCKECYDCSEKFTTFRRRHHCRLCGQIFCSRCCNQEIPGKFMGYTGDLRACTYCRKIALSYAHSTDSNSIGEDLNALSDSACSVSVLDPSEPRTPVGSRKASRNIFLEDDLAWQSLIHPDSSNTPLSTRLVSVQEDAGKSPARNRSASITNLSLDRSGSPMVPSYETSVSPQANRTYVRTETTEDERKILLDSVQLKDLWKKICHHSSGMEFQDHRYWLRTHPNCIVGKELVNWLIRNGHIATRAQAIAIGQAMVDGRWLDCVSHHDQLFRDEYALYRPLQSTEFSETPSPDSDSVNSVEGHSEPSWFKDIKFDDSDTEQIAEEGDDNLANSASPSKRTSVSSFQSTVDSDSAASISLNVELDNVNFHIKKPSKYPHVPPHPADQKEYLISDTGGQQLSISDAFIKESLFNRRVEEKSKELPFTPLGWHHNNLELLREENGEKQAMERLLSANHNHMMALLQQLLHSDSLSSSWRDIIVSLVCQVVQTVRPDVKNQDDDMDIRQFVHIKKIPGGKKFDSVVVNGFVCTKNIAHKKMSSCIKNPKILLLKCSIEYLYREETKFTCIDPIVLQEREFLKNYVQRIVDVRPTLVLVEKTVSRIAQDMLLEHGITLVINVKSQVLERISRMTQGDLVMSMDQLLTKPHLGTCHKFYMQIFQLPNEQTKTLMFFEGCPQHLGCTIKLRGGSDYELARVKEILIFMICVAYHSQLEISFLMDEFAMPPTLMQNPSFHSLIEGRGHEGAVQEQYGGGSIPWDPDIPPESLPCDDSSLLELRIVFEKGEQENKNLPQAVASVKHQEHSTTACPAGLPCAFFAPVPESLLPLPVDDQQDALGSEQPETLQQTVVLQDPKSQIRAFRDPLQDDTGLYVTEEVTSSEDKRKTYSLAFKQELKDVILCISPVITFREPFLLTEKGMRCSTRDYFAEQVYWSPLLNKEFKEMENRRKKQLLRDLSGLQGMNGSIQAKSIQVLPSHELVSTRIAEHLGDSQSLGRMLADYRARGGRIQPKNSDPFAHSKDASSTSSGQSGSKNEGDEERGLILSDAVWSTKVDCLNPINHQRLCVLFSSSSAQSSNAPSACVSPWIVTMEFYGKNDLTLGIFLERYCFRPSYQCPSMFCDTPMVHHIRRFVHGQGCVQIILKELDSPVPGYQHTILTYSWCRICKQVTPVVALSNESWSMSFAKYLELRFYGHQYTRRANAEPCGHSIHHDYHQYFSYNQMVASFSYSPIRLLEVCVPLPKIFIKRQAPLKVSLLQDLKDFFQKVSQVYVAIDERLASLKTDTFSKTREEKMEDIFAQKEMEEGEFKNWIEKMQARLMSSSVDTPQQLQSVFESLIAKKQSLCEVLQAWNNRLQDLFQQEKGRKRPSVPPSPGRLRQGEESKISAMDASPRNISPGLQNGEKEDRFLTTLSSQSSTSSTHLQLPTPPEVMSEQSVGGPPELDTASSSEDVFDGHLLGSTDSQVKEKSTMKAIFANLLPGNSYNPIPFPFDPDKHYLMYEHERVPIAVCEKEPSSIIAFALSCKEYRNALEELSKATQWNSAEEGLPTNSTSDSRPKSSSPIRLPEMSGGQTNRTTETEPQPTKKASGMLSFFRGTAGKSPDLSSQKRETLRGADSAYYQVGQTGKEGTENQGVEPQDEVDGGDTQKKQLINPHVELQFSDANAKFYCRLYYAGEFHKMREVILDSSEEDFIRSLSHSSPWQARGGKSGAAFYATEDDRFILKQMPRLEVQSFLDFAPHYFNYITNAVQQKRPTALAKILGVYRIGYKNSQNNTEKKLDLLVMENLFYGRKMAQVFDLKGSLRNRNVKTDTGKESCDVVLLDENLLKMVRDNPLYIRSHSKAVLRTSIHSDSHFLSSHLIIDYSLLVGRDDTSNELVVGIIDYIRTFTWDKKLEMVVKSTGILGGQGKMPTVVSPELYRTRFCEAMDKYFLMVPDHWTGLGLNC

With `Cc1cccc(-c2ccn(-c3cc(N4CCOCC4)c4sc(C(=O)N5CCN(S(C)(=O)=O)CC5)c(C)c4n3)n2)c1` [Ex. 291], the inhibition at 0.001 µM under setting [1] was 52 to 100%.
For `Cc1cccc(-c2ccn(-c3cc(N4CCOCC4)c4sc(NC(=O)C5COC5)cc4n3)n2)c1` [Ex. 232], the inhibition at 0.001 µM under setting [2] came to 24%.
Regarding `Cc1cccc(-c2ccn(-c3nc(N4CCOCC4)c4sc(N(C)C5CCN(C)CC5)nc4n3)n2)c1` [Ex. 208, N-Methyl-N-(1-methylpiperidin-4-yl)-7-morpholino-5-(3-(m-tolyl)-1H-pyrazol-1-yl)thiazolo[4,5-d]pyrimidin-2-amine], the inhibition at 0.001 µM under setting [1] lay in the range of 52 to 100%.
With `Cc1cccc(-c2ccn(-c3nc(N4CCOCC4)c4nc(C(=O)N5CCN(S(C)(=O)=O)CC5)[nH]c4n3)n2)c1` [Ex. 78], the inhibition at 0.001 µM under setting [1] fell in the range of 52 to 100%.
For the compound `Cc1cccc(-c2ccn(-c3cc(N4CCOCC4)c4sc(CN5CCN(S(C)(=O)=O)CC5)c(C)c4n3)n2)c1` [Ex. 169, 4-(3-Methyl-2-((4-(methylsulfonyl)piperazin-1-yl)methyl)-5-(3-(m-tolyl)-1H-pyrazol-1-yl)thieno[3,2-b]pyridin-7-yl)morpholine], under setting [2], the inhibition at 0.003 µM worked out at 47%.
For the compound `Cc1cccc(-c2ccn(-c3cc(N4CCOCC4)c4sc(C(=O)NC5CCOCC5)cc4n3)n2)c1` [Ex. 177, 7-Morpholino-N-(tetrahydro-2H-pyran-4-yl)-5-(3-(m-tolyl)-1H-pyrazol-1-yl)thieno[3,2-b]pyridine-2-carboxamide], under setting [1], the inhibition at 0.001 µM is 52 to 100%.
Take `Cc1cccc(-c2ccn(-c3nc4[nH]c(C(=O)N5CCC(N6CCC6)C(F)C5)nc4c(N4CCOCC4)c3F)n2)c1` (centres unmarked) [Ex. 312]: the inhibition at 0.003 µM under setting [2] turned out to be 10%.
For the compound `Cc1cccc(-c2ccn(-c3cc(N4CCOCC4)c4sc(NC(=O)C5CNC5)cc4n3)n2)c1` [Ex. 278], the inhibition at 0.001 µM under setting [1] fell in the range of 52 to 100%.
With `Cc1cccc(-c2ccn(-c3nc(N4CCOCC4)c4nc(C(=O)NC5COC5)[nH]c4n3)n2)c1` [Ex. 275], the inhibition at 0.001 µM under setting [2] was 40%.
Turning to `Cc1cccc(-c2ccn(-c3cc(N4CCOCC4)c4nc(CO)[nH]c4n3)n2)c1` [Ex. 317], the inhibition at 0.001 µM under setting [1] fell in the range of 52 to 100%.
`Cc1cccc(-c2ccn(-c3cc(N4CCOCC4)c4sc(NC(=O)C5CCN(C)C5)cc4n3)n2)c1` (centres unmarked) [Ex. 271]: under setting [1], the inhibition at 0.001 µM was 52 to 100%.
For `Cc1cccc(-c2ccn(-c3cc(N4CCOCC4)c4nc(C(=O)N5CCN(S(C)(=O)=O)CC5)n(C)c4n3)n2)c1` [Ex. 304], the inhibition at 0.001 µM under setting [2] worked out at 46%.
For `Cc1cccc(-c2ccn(-c3cc(N4CCOCC4)c4sc(CN5CCOCC5)c(C)c4n3)n2)c1` [Ex. 167, 4-(3-Methyl-2-(morpholinomethyl)-5-(3-(m-tolyl)-1H-pyrazol-1-yl)thieno[3,2-b]pyridin-7-yl)morpholine], the inhibition at 0.001 µM under setting [2] amounted to 7%.
As for `Cc1cccc(-c2ccn(-c3cc(N4CCOCC4)c4nc(C(=O)NC5CC5)[nH]c4n3)n2)c1` [Ex. 305], the inhibition at 0.001 µM under setting [1] was in the range of 52 to 100%.
On to `Cc1cccc(-c2ccn(-c3nc(N4CCOCC4)c4nc(C(=O)N5CCC(N6CCC6)C(F)C5)[nH]c4n3)n2)c1` (centres unmarked) [Ex. 85, (4-(Azetidin-1-yl)-3-fluoropiperidin-1-yl) (6-morpholino-2-(3-(m-tolyl)-1H-pyrazol-1-yl)-9H-purin-8-yl)methanone], for which, under setting [1], the inhibition at 0.001 µM lay in the range of 52 to 100%.
For `Cc1cccc(-c2ccn(-c3cc(N4CCOCC4)c4sc(C(N)=O)cc4n3)n2)c1` [Ex. 293], the inhibition at 0.001 µM under setting [1] lay in the range of 52 to 100%.
Consider `Cc1cccc(-c2ccn(-c3cc(N4CCOCC4)c4sc(CN5CCN(S(C)(=N)=O)CC5)cc4n3)n2)c1` (centres unmarked) [Ex. 284], for which the inhibition at 0.001 µM under setting [1] was 52 to 100%.
On the same count and under the same terms, in the case of `CC(=O)NC1CCN(Cc2nc3c(N4CCOCC4)cc(-n4ccc(-c5cccc(C)c5)n4)nc3[nH]2)CC1` [Ex. 302] it was 52 to 100%.
Turning to `Cc1cccc(-c2ccn(-c3nc(N4CCOCC4)c4nc(CO)[nH]c4n3)n2)c1` [Ex. 314], under setting [2], the inhibition at 0.001 µM turned out to be 40%.
For `Cc1cccc(-c2ccn(-c3cc(N4CCOCC4)c4sc(C(=O)N5CCC(N6CCC6)C(F)C5)cc4n3)n2)c1` (centres unmarked) [Ex. 236], under setting [1], the inhibition at 0.001 µM fell in the range of 52 to 100%.
As to `CC(=O)NC1CCN(Cc2cc3nc(-n4ccc(-c5cccc(C)c5)n4)cc(N4CCOCC4)c3s2)CC1` [Ex. 296], the inhibition at 0.001 µM under setting [1] fell in the range of 52 to 100%.
For the compound `Cc1cccc(-c2nc(-c3nc(N4CCOCC4)c4sc(CN5CCN(S(C)(=O)=O)CC5)cc4n3)cs2)c1` [Ex. 243], the inhibition at 0.001 µM under setting [1] lay within 52 to 100%.
Take `Cc1cccc(-c2ccn(-c3cc(N4CCOCC4)c4nc(CN5CCC(C(N)=O)CC5)[nH]c4n3)n2)c1` [Ex. 303]: the inhibition at 0.001 µM under setting [1] is 52 to 100%.
Regarding `Cc1cccc(-c2ccn(-c3cc(N4CCOCC4)c4sc(C(=O)N5CCN(C)CC5)cc4n3)n2)c1` [Ex. 217, (4-Methylpiperazin-1-yl) (7-morpholino-5-(3-(m-tolyl)-1H-pyrazol-1-yl)thieno[3,2-b]pyridin-2-yl)methanone], under setting [1], the inhibition at 0.001 µM lay within 52 to 100%.
With `Cc1cccc(-c2ccn(-c3cc(N4CCOCC4)c4nc(C(=O)N5CCN(S(C)(=O)=O)CC5)[nH]c4n3)n2)c1` [Ex. 87], the inhibition at 0.001 µM under setting [2] was found to be 20%.
In the case of `Cc1cccc(-c2ccn(-c3cc(N4CCOCC4)c4nc(CN5CCN(C(C)C)CC5)n(C)c4n3)n2)c1` [Ex. 79, 4-(2-((4-isopropylpiperazin-1-yl)methyl)-3-methyl-5-(3-(m-tolyl)-1H-pyrazol-1-yl)-3H-imidazo[4,5-b]pyridin-7-yl)morpholine], the inhibition at 0.001 µM under setting [1] was 52 to 100%.
Take `Cc1cccc(-c2ccn(-c3nc4[nH]c(C(=O)NC5CC5)nc4c(N4CCOCC4)c3F)n2)c1` [Ex. 307]: the inhibition at 0.003 µM under setting [2] stood at 0%.
Turning to `CNC(=O)c1cc2nc(-n3ccc(-c4cccc(C)c4)n3)cc(N3CCOCC3)c2s1` [Ex. 247], the inhibition at 0.001 µM under setting [1] is 52 to 100%.
`Cc1cccc(-c2ccn(-c3nc(N4CCOCC4)c4sc(C(=O)N5CCN(S(C)(=O)=O)CC5)cc4n3)n2)c1` [Ex. 286]: the inhibition at 0.001 µM under setting [1] is 52 to 100%.
Regarding `Cc1cccc(-c2ccn(-c3nc(N4CCOCC4)c4sc(/C=C/CN5CCN(C)CC5)cc4n3)n2)c1` [Ex. 180], the inhibition at 0.001 µM under setting [1] lay in the range of 52 to 100%.
On to `Cc1cccc(-c2nc(-c3nc(N4CCOCC4)c4sc(CN5CCN(S(C)(=O)=O)CC5)cc4n3)co2)c1` [Ex. 241], for which the inhibition at 0.003 µM under setting [2] worked out at 0%.
With `Cc1cccc(-c2ccn(-c3cc(N4CCOCC4)c4sc(CO)cc4n3)n2)c1` [Ex. 313], under setting [1], the inhibition at 0.001 µM lay in the range of 52 to 100%.
For the compound `Cc1cccc(-c2ccn(-c3cc(N4CCOCC4)c4sc(C(=O)N5CCC(N6CC(F)C6)C5)cc4n3)n2)c1` (centres unmarked) [Ex. 238], the inhibition at 0.001 µM under setting [1] fell in the range of 52 to 100%.
Same read-out and setting: under `Cc1cccc(-c2ccn(-c3cc(N4CCOCC4)c4nc(C(=O)NC5COC5)n(C)c4n3)n2)c1` [Ex. 308] stands 52 to 100%.
Take `Cc1cccc(-c2ccn(-c3cc(N4CCOCC4)c4nc(CN5CCN(S(=O)(=O)C6CC6)CC5)[nH]c4n3)n2)c1` [Ex. 280]: the inhibition at 0.001 µM under setting [2] came to 46%.
Turning to `CC(=O)N1CCN(Cc2cc3nc(-n4ccc(-c5cccc(C)c5)n4)cc(N4CCOCC4)c3s2)CC1` [Ex. 295], the inhibition at 0.001 µM under setting [1] was in the range of 52 to 100%.
Still for that read-out and setting: in the case of `Cc1cccc(-c2ccn(-c3nc(N4CCOCC4)c4nc(C(=O)N5CCN(C(C)C)CC5)[nH]c4n3)n2)c1` [Ex. 86] it was 52 to 100%.
Regarding `Cc1cccc(-c2ccn(-c3nc(N4CCOCC4)c4nc(CN5CCN(S(C)(=N)=O)CC5)[nH]c4n3)n2)c1` (centres unmarked) [Ex. 282], the inhibition at 0.001 µM under setting [2] was determined as 41%.
`Cc1cccc(-c2ccn(-c3cc(N4CCOCC4)c4sc(CO)c(C)c4n3)n2)c1` [Ex. 166, (3-Methyl-7-morpholino-5-(3-(m-tolyl)-1H-pyrazol-1-yl)thieno[3,2-b]pyridin-2-yl)methanol]: under setting [2], the inhibition at 0.001 µM was found to be 34% and the inhibition at 0.003 µM was found to be 14%.
Take `Cc1cccc(-c2ccn(-c3cc(N4CCOCC4)c4sc(C(=O)NC5CN(C)C5)cc4n3)n2)c1` [Ex. 201, N-(1-Methylazetidin-3-yl)-7-morpholino-5-(3-(m-tolyl)-1H-pyrazol-1-yl)thieno[3,2-b]pyridine-2-carboxamide]: under setting [1], the inhibition at 0.001 µM lay within 52 to 100%.
In the case of `Cc1cccc(-c2ccn(-c3nc4[nH]c(C(=O)NC5COC5)nc4c(N4CCOCC4)c3F)n2)c1` [Ex. 310], the inhibition at 0.003 µM under setting [2] worked out at 0%.
For the compound `Cc1cccc(-c2ccn(-c3cc(N4CCOCC4)c4sc(NC(=O)C5CCCN(C)C5)cc4n3)n2)c1` (centres unmarked) [Ex. 272], the inhibition at 0.001 µM under setting [2] stood at 44%.
In the case of `Cc1cccc(-c2ccn(-c3nc(N4CCOCC4)c4nc(CN5CCC(N(C)C)C(F)C5)n(C)c4n3)n2)c1` (centres unmarked) [Ex. 171, 3-fluoro-N,N-dimethyl-1-((9-methyl-6-morpholino-2-(3-(m-tolyl)-1H-pyrazol-1-yl)-9H-purin-8-yl)methyl)piperidin-4-amine], the inhibition at 0.003 µM under setting [2] is 22%.
On to `Cc1cccc(-c2ccn(-c3cc(N4CCOCC4)c4sc(C(=O)NC5CCCN(C)C5)cc4n3)n2)c1` (centres unmarked) [Ex. 187, N-(1-Methylpiperidin-3-yl)-7-morpholino-5-(3-(m-tolyl)-1H-pyrazol-1-yl)thieno[3,2-b]pyridine-2-carboxamide], for which the inhibition at 0.001 µM under setting [1] lay within 52 to 100%.
Regarding `CC(=O)c1cccc(-c2ccn(-c3cc(N4CCOCC4)c4sc(CN5CCOCC5)cc4n3)n2)c1` [Ex. 184, 1-(3-(1-(7-Morpholino-2-(morpholinomethyl)thieno[3,2-b]pyridin-5-yl)-1H-pyrazol-3-yl)phenyl) ethan-1-one], the inhibition at 0.005 µM under setting [2] turned out to be 10%.
Consider `Cc1cccc(-c2ccn(-c3cc(N4CCOCC4)c4sc(C(=O)NC5CCN(C)C5)cc4n3)n2)c1` (centres unmarked) [Ex. 200, N-(1-Methylpyrrolidin-3-yl)-7-morpholino-5-(3-(m-tolyl)-1H-pyrazol-1-yl)thieno[3,2-b]pyridine-2-carboxamide], for which the inhibition at 0.001 µM under setting [1] is 52 to 100%.
For `Cc1cccc(-c2ccn(-c3cc(N4CCOCC4)c4nc(C(=O)NC5COC5)[nH]c4n3)n2)c1` [Ex. 298], the inhibition at 0.001 µM under setting [1] lay in the range of 52 to 100%.
Consider `Cc1cccc(-c2ccn(-c3cc(N4CCOCC4)c4nc(CN5CCC(N(C)C)C(F)C5)n(C)c4n3)n2)c1` (centres unmarked) [Ex. 82, 3-fluoro-N,N-dimethyl-1-((3-methyl-7-morpholino-5-(3-(m-tolyl)-1H-pyrazol-1-yl)-3H-imidazo[4,5-b]pyridin-2-yl)methyl)piperidin-4-amine], for which, under setting [1], the inhibition at 0.001 µM was in the range of 52 to 100%.
For `Cc1cccc(-c2ccn(-c3nc4[nH]c(C(=O)N5CCC(C(C)(C)O)CC5)nc4c(N4CCOCC4)c3F)n2)c1` [Ex. 306], the inhibition at 0.003 µM under setting [2] was 9%.

The record behind these values is US20260297108A1, “NOVEL INHIBITORS OF PIKFYVE AND METHODS USING SAME” (priority 2023, published 2026).
